What was measured:
[1] = no clear dose-dependent relationship; not significant beyond 30 days; cited from earlier work
[2] = tested on: IgE; details: cited from earlier work
[3] = tested on: splenic B cell and T cell populations; assay: Wild type mouse study: spleen immunophenotyping by flow cytometry; assay type: in vivo, C57BL/6 mice
[4] = tested on: bone marrow B cell subsets; assay: Wild type mouse study: bone marrow B cell immunophenotyping by flow cytometry; assay type: in vivo, C57BL/6 mice; details: 1 mg/kg IP, 21 days
[5] = tested on: circulating immunoglobulins; assay: Wild type mouse study: circulating immunoglobulin profile by ELISA; assay type: in vivo, C57BL/6 mice; details: clozapine 5 and 10 mg/kg, haloperidol 1 mg/kg, IP 21 days; FIG. 24
[6] = molecular target: T1, CD20 (Homo sapiens, UniProt P11836); details: cited from earlier work
T1 construct: host or cells: patients' own B cells
T1 sequence (P11836 1-297): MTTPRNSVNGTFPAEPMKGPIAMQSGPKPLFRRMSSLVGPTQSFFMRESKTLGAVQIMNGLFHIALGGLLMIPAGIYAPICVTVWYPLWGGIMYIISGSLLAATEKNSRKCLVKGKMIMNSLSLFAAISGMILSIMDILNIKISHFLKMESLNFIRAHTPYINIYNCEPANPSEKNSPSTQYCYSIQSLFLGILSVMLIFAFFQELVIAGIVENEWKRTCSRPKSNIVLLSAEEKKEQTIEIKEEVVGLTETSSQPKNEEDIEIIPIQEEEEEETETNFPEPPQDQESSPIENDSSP

Chain of IgE (P01854 1-425 limits assumed): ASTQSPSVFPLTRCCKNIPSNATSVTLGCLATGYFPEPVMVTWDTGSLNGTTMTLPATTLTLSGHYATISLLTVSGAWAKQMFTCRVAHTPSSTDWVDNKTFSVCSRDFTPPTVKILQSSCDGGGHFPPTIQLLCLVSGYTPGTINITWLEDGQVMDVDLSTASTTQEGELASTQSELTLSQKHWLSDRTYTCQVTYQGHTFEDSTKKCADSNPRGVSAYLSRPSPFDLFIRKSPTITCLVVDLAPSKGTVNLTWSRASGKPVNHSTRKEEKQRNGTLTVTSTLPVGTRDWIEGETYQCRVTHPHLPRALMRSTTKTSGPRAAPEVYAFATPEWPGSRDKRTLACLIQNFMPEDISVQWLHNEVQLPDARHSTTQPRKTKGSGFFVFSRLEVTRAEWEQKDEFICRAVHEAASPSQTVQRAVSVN

In the case of `Cc1cc2c(s1)Nc1ccccc1N=C2N1CCN(C)CC1` [olanzapine], the “risk of pneumonia requiring hospitalization” value (shortened to “risk”) [1] is listed as “modestly increased risk”.
In the case of `Cc1nc2n(c(=O)c1CCN1CCC(c3noc4cc(F)ccc34)CC1)CCCC2` [risperidone], the “risk” value [1] is listed as “modestly increased risk”.
For “omalizumab: humanised monoclonal anti-IgE antibody”, the “treatment of refractory chronic spontaneous urticaria” value ([2]; 2 phase II and 4 phase III trials (Chang et al., 2015)) is listed as “efficacious and safe”, the “clinical efficacy in allergic rhinitis” value ([2]; Holgate et al., 2005, Tsabouri et al., 2014) is listed as “clinically effective” and the “effect in refractory/relapsing Churg-Strauss syndrome” value ([2]; Jachiet et al., 2016) is listed as “corticosteroid-sparing effect”. The “efficacy in atopic individuals with coexisting eye disease” value ([2]; Kopp et al., 2009) was “has shown efficacy”, the “burden of asthma symptoms” value ([2]; inner city children and young adults (Busse et al., 2011)) was “significant reduction” and the “clinical outcome in eosinophilic oesophagitis” value ([2]; pilot study (Loizou et al., 2015)) was “clinical improvement in a proportion of patients”.
With `O=C(CCCN1CCC(O)(c2ccc(Cl)cc2)CC1)c1ccc(F)cc1` [haloperidol] the “activated T cells (B220+TCR-beta+) in spleen vs control” value ([3]; clozapine 2.5-10 mg/kg, haloperidol 1 mg/kg, IP 21 days, FIG. 21) was “modestly apparent”, the “impact on B cell subpopulations” value ([3]; comparator, 1 mg/kg IP, 21 days) was “not observed” and the “early developing B cell subsets in bone marrow (overall B, pre-pro B, pro-B)” value ([4]; FIG. 18) was “no significant effect”. For the same compound, the “effect on long-lived plasma cells in the bone marrow” value ([4]; FIG. 20) was “no effect” and the “circulating IgA levels compared to control” value [5] was “not observed”.
In the case of `OCCOCCN1CCN(C2=Nc3ccccc3Sc3ccccc32)CC1` [quetiapine], the “risk” value [1] is given as “modestly increased risk”.
For “rituximab: anti-CD-20 antibody used for B cell depletion”, the “clinical outcome in Churg-Strauss syndrome” value ([6]; Mohammad et al., 2016) is listed as “clinically effective in inducing remission or partial responses”, the “clinical outcome in atopic dermatitis” value ([6]; Simon et al., 2008) is listed as “substantial clinical improvement” and the “reduction of B cells in the skin, atopic dermatitis” value ([6]; Simon et al., 2008) is listed as about 50%. For the same compound, the “effect on IgE levels” value ([6]; van Vollenhoven et al., 2013) was “modest”.
